From patent US4159263A, “(D-Ala^5)-somatostatin and analogues thereof” (American Home Products Corporation, priority 1977, dated 1979) come the findings set out here.

SMILES strings stand for the structures. Positions of bridges follow the written chain, without caps; N, C: chain ends. Non-standard residues stand in square brackets, D forms with d. Residues, ends and D or L forms follow the SMILES beside them.

One experiment deals with insulin. The experiment is described as follows: Arginine-stimulated insulin secretion in Nembutal-anesthetized rats, radioimmunoassay of blood. In kind it is in vivo. The settings on record: for Insulin: albino male rats, subcutaneous. The source says: (§1) The results of the assay are as follows:
The next experiment has as its system growth hormone. The experiment is described as follows: Arginine-stimulated growth hormone secretion in Nembutal-anesthetized rats, radioimmunoassay of blood. The settings on record: for GH: albino male rats, subcutaneous. In kind it is in vivo.
Description: as §1

In the next experiment the test system is glucagon. The experiment can be described thus: Arginine-stimulated glucagon secretion in Nembutal-anesthetized rats, radioimmunoassay of blood. The conditions noted are these: for Glucagon: albino male rats, subcutaneous.

Description for glucagon: Albino male rats were administered Nembutal intraperitoneally at a dose of 50 milligrams per kilogram. Fifteen minutes later a subcutaneous injection of the test compound or physiological saline was administered. Ten minutes later 0.5 milliliters of arginine (300 milligrams per milliliter, pH 7.2) is injected into the heart. Five minutes after receipt of the arginine the rats are decapitated and blood is collected into trasylol-EDTA. An appropriate aliquot was assayed for growth hormone, insulin and glucagon by radioimmunoassay.

As to `C[C@H](N)C(=O)NCC(=O)N[C@H]1CSSC[C@@H](C(=O)O)NC(=O)[C@H](CO)NC(=O)[C@H]([C@@H](C)O)NC(=O)[C@H](Cc2ccccc2)NC(=O)[C@H]([C@@H](C)O)NC(=O)[C@H](CCCCN)NC(=O)[C@@H](Cc2c[nH]c3ccccc23)NC(=O)[C@H](Cc2ccccc2)NC(=O)[C@H](Cc2ccccc2)NC(=O)[C@@H](C)NC(=O)[C@H](CCCCN)NC1=O` [L-Alanylglycyl-L-cysteinyl-L-lysyl-D-alanyl-L-phenylalanyl-L-phenylalanyl-D-tryptophyl-L-lysyl-L-threonyl-L-phenylalanyl-L-threonyl-L-seryl-L-cysteinecyclic (3→14)-disulfide, triacetate] (H-AGCK[dA]FF[dW]KTFTSC-OH; disulfide 3-14), the Insulin in the experiment on insulin (dose 10 ug/kg, control 321 ± 49) is listed as 215 ± 13 μU/ml; in the experiment on insulin (dose 100 ug/kg, control 339 ± 45), 68 ± 11 μU/ml; with insulin (dose 1,000 ug/kg, control 191 ± 11) it was 42 ± 5 μU/ml. Also, in the experiment on insulin (summary of rat results), the “reducing secretion of insulin (summary in words)” value is “effective agent for reducing secretion of growth hormone and insulin”. Besides, the GH in the experiment on growth hormone (dose 10 ug/kg, control 254 ± 40) is 53 ± 6 ng/mL; in the experiment with growth hormone (dose 100 ug/kg, control 526 ± 153), 117 ± 31 ng/mL; in the experiment with growth hormone (dose 1,000 ug/kg, control 312 ± 63) it was 34 ± 5 ng/mL. Also, in the experiment with growth hormone (summary of rat results), the “reducing secretion of growth hormone (summary in words)” value is “effective agent for reducing secretion of growth hormone”. Besides, the Glucagon with glucagon (dose 10 ug/kg, control 92 ± 23, *not significant) is 78 ± 7 pg/mL; in the experiment on glucagon (dose 1,000 ug/kg, control 42 ± 3) it was 40 ± 6 pg/mL. For the same compound, the “effect on glucagon levels (summary in words)” value with glucagon (summary of rat results) was “without materially affecting glucagon levels”.
